Test results taken from the supplement of paper PMC10307832.

How the values were obtained:
Test in all cases: relative viability (nuclei count vs DMSO), 5 days (fraction); higher = more cells survive
IU1-47 + Alpelisib = compound: CC1=CC(=C(N1C2=CC=C(C=C2)Cl)C)C(=O)CN3CCCCC3 [IU1-47] + Cc1nc(NC(=O)N2CCC[C@H]2C(N)=O)sc1-c1ccnc(C(C)(C)C(F)(F)F)c1 [Alpelisib] (partner 2 µM)
Procedure, shortened: (§1)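 A single step with final 0.05% Triton X-100, 1% formaldehyde and 1 ug/ml Hoechst fixed the cells and stained nuclei 5 days after treatment. Lung cancer cell lines in 1536-well plates had been treated by pin tool the day after seeding with one drug alone or a fixed anchor-drug dose plus five library-drug doses (not always all listed) in √10 steps, and nuclei were counted on 4× images. Relative viability is the ratio of nuclei in treated wells to nuclei in vehicle wells, taken as the median of duplicate plates.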

FG-4592 + Foretinib = compound: Cc1nc(C(=O)NCC(=O)O)c(O)c2ccc(Oc3ccccc3)cc12 [FG-4592] + COc1cc2c(Oc3ccc(NC(=O)C4(C(=O)Nc5ccc(F)cc5)CC4)cc3F)ccnc2cc1OCCCN1CCOCC1 [Foretinib] (partner 0.25 µM)
Procedure, shortened: as §1

IU1-47 + Dasatinib = compound: CC1=CC(=C(N1C2=CC=C(C=C2)Cl)C)C(=O)CN3CCCCC3 [IU1-47] + Cc1nc(Nc2ncc(C(=O)Nc3c(C)cccc3Cl)s2)cc(N2CCN(CCO)CC2)n1 [Dasatinib] (partner 0.075 µM)
Procedure, shortened: as §1

FG-4592 + Crizotinib = compound: Cc1nc(C(=O)NCC(=O)O)c(O)c2ccc(Oc3ccccc3)cc12 [FG-4592] + C[C@@H](Oc1cc(-c2cnn(C3CCNCC3)c2)cnc1N)c1c(Cl)ccc(F)c1Cl [Crizotinib] (partner 1 µM)
Procedure, shortened: as §1

| Cell Line | relative viability (IU1-47 + Alpelisib; first compound 0.08 µM) | relative viability (IU1-47 + Alpelisib; first compound 0.253 µM) | relative viability (IU1-47 + Alpelisib; first compound 0.8 µM) | relative viability (IU1-47 + Alpelisib; first compound 2.53 µM) | relative viability (IU1-47 + Alpelisib; first compound 8 µM) | relative viability (FG-4592 + Foretinib; first compound 0.08 µM) | relative viability (FG-4592 + Foretinib; first compound 0.253 µM) | relative viability (FG-4592 + Foretinib; first compound 0.8 µM) | relative viability (FG-4592 + Foretinib; first compound 2.53 µM) | relative viability (FG-4592 + Foretinib; first compound 8 µM) | relative viability (IU1-47 + Dasatinib; first compound 0.08 µM) | relative viability (IU1-47 + Dasatinib; first compound 0.253 µM) | relative viability (IU1-47 + Dasatinib; first compound 0.8 µM) | relative viability (IU1-47 + Dasatinib; first compound 2.53 µM) | relative viability (IU1-47 + Dasatinib; first compound 8 µM) | relative viability (FG-4592 + Crizotinib; first compound 0.08 µM) | relative viability (FG-4592 + Crizotinib; first compound 0.253 µM) | relative viability (FG-4592 + Crizotinib; first compound 0.8 µM) | relative viability (FG-4592 + Crizotinib; first compound 2.53 µM) | relative viability (FG-4592 + Crizotinib; first compound 8 µM) |
| --- | --- | --- | --- | --- | --- | --- | --- | --- | --- | --- | --- | --- | --- | --- | --- | --- | --- | --- | --- | --- |
| LXF-289 | 1.06 | 1.09 | 1.12 | 1.06 | 1.05 | 0.97 | 0.981 | 0.993 | 0.974 | 1.12 | 0.219 | 0.24 | 0.179 | 0.223 | 0.209 | 0.796 | 0.721 | 0.911 | 0.77 | 0.901 |
| NCI-H23 | 0.703 | 0.881 | 0.723 | 0.777 | 0.824 | 1.01 | 0.856 | 0.973 | 0.999 | 0.966 | 0.925 | 0.625 | 0.9 | 0.671 | 0.743 | 0.556 | 0.471 | 0.654 | 0.627 | 0.472 |
| NCI-H322M | 0.802 | 0.82 | 0.805 | 0.755 | 0.831 | 0.87 | 0.937 | 0.903 | 0.975 | 0.91 | 0.251 | 0.251 | 0.257 | 0.265 | 0.238 | 0.924 | 0.886 | 1.19 | 1.02 | 0.815 |
| NCI-H358 | 0.917 | 0.877 | 0.91 |  | 0.682 | 0.732 | 0.632 | 0.85 | 0.535 | 0.632 | 0.147 | 0.142 | 0.156 | 0.168 | 0.211 | 0.531 | 0.602 | 0.703 | 0.704 | 0.594 |
| NCI-H441 | 0.672 | 0.82 | 0.616 | 0.92 | 0.779 | 0.956 | 0.896 | 0.931 | 0.841 | 1.01 | 0.717 | 0.655 | 0.679 | 0.471 | 0.576 | 0.582 | 0.646 | 0.916 | 0.72 | 0.632 |
| NCI-H460 | 0.564 | 0.575 | 0.532 | 0.587 | 0.488 | 0.986 | 1.04 | 1.04 | 1.03 | 1.03 | 0.68 | 0.508 | 0.654 | 0.538 | 0.501 | 0.87 | 0.864 | 1.21 | 0.952 | 0.994 |
| NCI-H520 | 0.947 | 0.948 | 1.03 | 0.907 | 0.726 | 0.497 | 0.639 | 0.674 | 0.868 | 0.605 | 0.197 | 0.172 | 0.203 | 0.217 | 0.166 | 0.731 | 0.652 | 0.932 | 0.758 | 0.586 |
| NCI-H596 | 0.638 | 0.44 | 0.0053 | 0.429 | 0.49 | 0.814 | 0.617 | 0.764 | 0.867 | 0.465 | 0.574 | 0.617 | 0.606 | 0.595 | 0.554 | 1.02 | 0.898 |  | 0.806 | 0.778 |
| NCI-H647 | 1.18 | 1.21 | 1.19 | 1.07 | 0.383 | 1.19 | 1.07 | 1.18 | 0.815 | 0.782 | 0.171 | 0.179 |  | 0.155 | 0.177 | 0.941 | 1.04 | 1.01 | 1.17 | 1.03 |
| NCI-H650 | 1.28 | 1.14 | 1.2 | 1.09 | 1.01 | 0.997 | 0.961 | 0.882 | 0.991 | 0.861 | 0.457 | 0.439 | 0.476 | 0.427 | 0.445 | 0.598 | 0.648 | 0.756 | 0.654 | 0.61 |
| NCI-H661 | 0.909 | 0.603 | 0.581 | 0.593 | 0.404 | 1.06 | 0.956 | 1.09 | 0.987 | 0.938 | 0.884 | 0.879 | 0.83 | 0.77 | 0.695 |  |  | 1.29 | 1.04 | 1.1 |
| NCI-H727 | 0.712 |  | 0.647 | 0.626 | 0.377 | 0.934 | 0.617 | 1.08 | 0.999 | 1.11 | 0.396 | 0.398 | 0.362 | 0.289 | 0.442 | 0.776 | 0.827 | 0.913 | 1.1 | 0.83 |
| NCI-H838 | 1.04 | 1.03 | 1.05 | 1.08 | 0.859 | 1.06 | 0.922 | 1.08 | 1.06 | 0.969 | 0.31 | 0.31 | 0.32 | 0.3 | 0.281 | 0.795 | 0.799 | 0.962 | 0.941 | 0.904 |
| NCI-H1355 | 0.89 | 0.948 | 0.894 | 0.797 | 0.79 | 0.987 | 0.678 | 0.93 | 1.02 | 0.971 | 0.655 | 0.798 | 0.706 |  | 0.667 | 1.05 | 1.02 |  | 1.07 | 0.944 |
| NCI-H1437 | 1.13 | 0.967 | 0.921 | 1.05 | 0.718 | 1.24 | 1.19 | 1.29 | 1.3 | 1.04 | 0.369 | 0.348 | 0.384 | 0.35 | 0.365 | 0.95 | 0.911 | 1.03 | 0.936 | 0.879 |
